# Assay results from patent publication US20250152592A1, “PHARMACEUTICAL COMPOSITION COMPRISING ALLOPURINOL, FEBUXOSTAT OR PHARMACEUTICALLY ACCEPTABLE SALT THEREOF FOR PREVENTION OR TREATMENT OF CHRONIC KIDNEY DISEASE IN SUBJECT HAVING HIGH SERUM URIC ACID CONCENTRATION” (Indream Healthcare Inc., priority 2022, published 2025).
# Test system: patients with gout and a history of major cardiovascular diseases
# Assay: eGFR over time by average serum uric acid concentration, analysis of clinical trial data
# Format: in vivo, human
# Conditions: allopurinol group
# Description: In order to evaluate non-inferiority of febuxostat to allopurinol related to cardiovascular risk, a clinical trial was designed and proceeded.
# A multicenter, randomized, double-blind non-inferiority trial was performed. The details of the clinical trial design have been published previously. An independent data and safety monitoring committee with access to unblinded data monitored the clinical trial. The statistical analysis for the data and the safety monitoring committee was performed by an independent statistical group (WebbWrites).
# The patients were regarded as having a history of major cardiovascular diseases, if they had myocardial infarction, hospitalization for unstable angina, stroke, hospitalization for transient ischemic attack, peripheral vascular disease, or diabetes mellitus symptoms. All participants provided a prior informed consent form.
# The patients were randomly assigned so that they received febuxostat or allopurinol administered once a day in a double-blind manner. The randomization was stratified according to the estimated creatinine clearance at baseline (patient group having an estimated creatinine clearance ≥60 ml per minute vs patient group having an estimated creatinine clearance ≥30 and <60 ml per minute).
# The dose of allopurinol was modified according to a kidney function. The patients with the estimated creatinine clearance 60 ml or more per minute i) initially received allopurinol at a dose of 300 mg once a day, and the dose was increased in 100 mg increments monthly until the patient had the serum uric acid concentration of less than 6.0 mg per deciliter or the dosage of allopurinol was 600 mg once a day. The patient having the estimated creatinine clearance of 30 ml or more and less than 60 ml per minute initially received 200 mg of allopurinol, and then the dose was increased in 100 mg increments until the patient either had the serum uric acid concentration of less than 6.0 mg per deciliter or was receiving the allopurinol dose of 400 mg once daily.
# The dose of febuxostat was not modified according to the kidney function. The patients who were randomly assigned to receive febuxostat initially received 40 mg once a daily, and continued to receive the same dosage if the serum uric acid concentration was less than 6.0 mg per deciliter after 2 weeks of the treatment. If the serum uric acid concentration was higher than 6.0 mg per deciliter at 2nd week visit, the dose of febuxostat was increased to 80 mg once daily for the remainder of the trial.
# During the period, the administration of a double-blind and double-dummy trial medications was guided by an interactive voice-response system which was a procedure to prevent unblinding for the patients whose dose was not adjusted. After completing dose adjustment, the urate level was concealed from the investigators, and the treatment was managed throughout the trial using the interactive voice-response system.
# Outpatient visits were conducted according to the following schedule: during screening and randomization, and at 2, 4, 6, 8, 10, 12, and 24 weeks after the randomization, and every 6 months during the subsequent years of the trial. The patients with reduced kidney function or, the patients aged 65 years or older at randomization were visited at 9 and 15 months for monitoring the serum chemical profile. If the patient agreed to be monitored, but would not return for study visit, telephone contact was made, but such method was not preferred or recommended.
# In order to confirm the effect of allopurinol and febuxostat on the kidney disease, the data obtained in the clinical trial described above was analyzed.
smiles,measurement,setting,value
Oc1ncnc2[nH]ncc12 [allopurinol],eGFR Mean (95% CI),"Baseline blood glucose level ≥126, Average UA <6, Baseline",63.77 (62.08-65.46) ml/min/1.73 m^2
same,eGFR Mean (95% CI),"Baseline blood glucose level ≥126, Average UA <6, Month 3",63.92 (62.16-65.69) ml/min/1.73 m^2
same,eGFR Mean (95% CI),"Baseline blood glucose level ≥126, Average UA <6, Month 6",63.77 (61.98-65.56) ml/min/1.73 m^2
same,eGFR Mean (95% CI),"Baseline blood glucose level ≥126, Average UA <6, Month 12",64.33 (62.51-66.15) ml/min/1.73 m^2
same,eGFR Mean (95% CI),"Baseline blood glucose level ≥126, Average UA <6, Month 18",64.04 (61.97-66.10) ml/min/1.73 m^2
same,eGFR Mean (95% CI),"Baseline blood glucose level ≥126, Average UA <6, Month 24",64.60 (62.41-66.78) ml/min/1.73 m^2
same,eGFR Mean (95% CI),"Baseline blood glucose level ≥126, Average UA <6, Month 30",63.32 (60.93-65.71) ml/min/1.73 m^2
same,eGFR Mean (95% CI),"Baseline blood glucose level ≥126, Average UA <6, Month 36",63.57 (60.97-66.18) ml/min/1.73 m^2
same,eGFR Mean (95% CI),"Baseline blood glucose level ≥126, Average UA <6, Month 42",62.14 (59.40-64.89) ml/min/1.73 m^2
same,eGFR Mean (95% CI),"Baseline blood glucose level ≥126, Average UA <6, Month 48",64.42 (61.23-67.61) ml/min/1.73 m^2
same,eGFR Mean (95% CI),"Baseline blood glucose level ≥126, Average UA <6, Month 54",64.35 (61.09-67.61) ml/min/1.73 m^2
same,eGFR Mean (95% CI),"Baseline blood glucose level ≥126, Average UA <6, Month 60",64.49 (60.29-68.70) ml/min/1.73 m^2
same,eGFR Mean (95% CI),"Baseline blood glucose level ≥126, Average UA <6, Week 2",63.46 (61.70-65.22) ml/min/1.73 m^2
same,eGFR Mean (95% CI),"Baseline blood glucose level ≥126, Average UA ≥6, Baseline",62.56 (60.14-64.98) ml/min/1.73 m^2
same,eGFR Mean (95% CI),"Baseline blood glucose level ≥126, Average UA ≥6, Month 3",62.44 (59.88-65.00) ml/min/1.73 m^2
same,eGFR Mean (95% CI),"Baseline blood glucose level ≥126, Average UA ≥6, Month 6",61.37 (58.85-63.90) ml/min/1.73 m^2
same,eGFR Mean (95% CI),"Baseline blood glucose level ≥126, Average UA ≥6, Month 12",62.57 (60.02-65.12) ml/min/1.73 m^2
same,eGFR Mean (95% CI),"Baseline blood glucose level ≥126, Average UA ≥6, Month 18",60.70 (57.80-63.60) ml/min/1.73 m^2
same,eGFR Mean (95% CI),"Baseline blood glucose level ≥126, Average UA ≥6, Month 24",60.72 (57.46-63.99) ml/min/1.73 m^2
same,eGFR Mean (95% CI),"Baseline blood glucose level ≥126, Average UA ≥6, Month 30",60.06 (56.44-63.69) ml/min/1.73 m^2
same,eGFR Mean (95% CI),"Baseline blood glucose level ≥126, Average UA ≥6, Month 36",59.78 (55.61-63.95) ml/min/1.73 m^2
same,eGFR Mean (95% CI),"Baseline blood glucose level ≥126, Average UA ≥6, Month 42",57.66 (52.84-62.48) ml/min/1.73 m^2
same,eGFR Mean (95% CI),"Baseline blood glucose level ≥126, Average UA ≥6, Month 48",56.80 (51.66-61.93) ml/min/1.73 m^2
same,eGFR Mean (95% CI),"Baseline blood glucose level ≥126, Average UA ≥6, Month 54",57.15 (51.53-62.78) ml/min/1.73 m^2
same,eGFR Mean (95% CI),"Baseline blood glucose level ≥126, Average UA ≥6, Month 60",54.70 (48.12-61.28) ml/min/1.73 m^2
same,eGFR Mean (95% CI),"Baseline blood glucose level ≥126, Average UA ≥6, Week 2",62.27 (59.80-64.73) ml/min/1.73 m^2
same,eGFR Mean (95% CI),"DBP <80, Average UA <6, Baseline",62.91 (61.68-64.15) ml/min/1.73 m^2
same,eGFR Mean (95% CI),"DBP <80, Average UA <6, Month 3",63.26 (61.95-64.58) ml/min/1.73 m^2
same,eGFR Mean (95% CI),"DBP <80, Average UA <6, Month 6",63.55 (62.23-64.87) ml/min/1.73 m^2
same,eGFR Mean (95% CI),"DBP <80, Average UA <6, Month 12",64.71 (63.34-66.07) ml/min/1.73 m^2
same,eGFR Mean (95% CI),"DBP <80, Average UA <6, Month 18",64.41 (62.91-65.90) ml/min/1.73 m^2
same,eGFR Mean (95% CI),"DBP <80, Average UA <6, Month 24",64.00 (62.43-65.57) ml/min/1.73 m^2
same,eGFR Mean (95% CI),"DBP <80, Average UA <6, Month 30",64.49 (62.77-66.21) ml/min/1.73 m^2
same,eGFR Mean (95% CI),"DBP <80, Average UA <6, Month 36",63.61 (61.80-65.43) ml/min/1.73 m^2
same,eGFR Mean (95% CI),"DBP <80, Average UA <6, Month 42",63.91 (61.95-65.87) ml/min/1.73 m^2
same,eGFR Mean (95% CI),"DBP <80, Average UA <6, Month 48",64.88 (62.69-67.07) ml/min/1.73 m^2
same,eGFR Mean (95% CI),"DBP <80, Average UA <6, Month 54",64.19 (61.76-66.62) ml/min/1.73 m^2
same,eGFR Mean (95% CI),"DBP <80, Average UA <6, Month 60",64.73 (61.86-67.61) ml/min/1.73 m^2
same,eGFR Mean (95% CI),"DBP <80, Average UA <6, Week 2",62.85 (61.57-64.14) ml/min/1.73 m^2
same,eGFR Mean (95% CI),"DBP <80, Average UA ≥6, Baseline",60.15 (58.18-62.12) ml/min/1.73 m^2
same,eGFR Mean (95% CI),"DBP <80, Average UA ≥6, Month 3",61.22 (59.20-63.24) ml/min/1.73 m^2
same,eGFR Mean (95% CI),"DBP <80, Average UA ≥6, Month 6",61.19 (59.14-63.24) ml/min/1.73 m^2
same,eGFR Mean (95% CI),"DBP <80, Average UA ≥6, Month 12",60.39 (58.37-62.42) ml/min/1.73 m^2
same,eGFR Mean (95% CI),"DBP <80, Average UA ≥6, Month 18",60.06 (57.73-62.40) ml/min/1.73 m^2
same,eGFR Mean (95% CI),"DBP <80, Average UA ≥6, Month 24",59.51 (56.88-62.15) ml/min/1.73 m^2
same,eGFR Mean (95% CI),"DBP <80, Average UA ≥6, Month 30",59.37 (56.35-62.39) ml/min/1.73 m^2
same,eGFR Mean (95% CI),"DBP <80, Average UA ≥6, Month 36",58.89 (55.43-62.34) ml/min/1.73 m^2
same,eGFR Mean (95% CI),"DBP <80, Average UA ≥6, Month 42",57.48 (53.76-61.19) ml/min/1.73 m^2
same,eGFR Mean (95% CI),"DBP <80, Average UA ≥6, Month 48",59.25 (55.00-63.51) ml/min/1.73 m^2
same,eGFR Mean (95% CI),"DBP <80, Average UA ≥6, Month 54",58.18 (53.60-62.76) ml/min/1.73 m^2
same,eGFR Mean (95% CI),"DBP <80, Average UA ≥6, Week 2",61.16 (59.19-63.13) ml/min/1.73 m^2
